Reference: patent US20050038022A1, “Method for treatment of cancer and compositions for use therein” (Unisearch Limited, priority 2001, published 2005)

Assays:
[1] = system: liver, colorectal, prostate and leukeamic cell lines; test: Albendazole/ABS side by side in various cell lines (general); type: cell-based; details: 5 days
Protocol: (§1) In order to be able to test ABS, a proper solvent had to be found. […] Therefore to allow direct comparison between the 2 compounds, all subsequent experiments were run using 0.5% DMSO for both ABS and albendazole. In the cell lines examined, albendazole produced very similar results to what we had previously reported for the drug in liver cancer cells.
(§2) Both albendazole and ABS were tested side by side against various cell lines as follows: • Liver—HepGZ Hep3B, SKHEP-1 • Colorectal—170, LOVO, HT-29 • Prostate—PC3, LNCap, Du145 • Leukeamic—HL60
The fist 9 cell lines were used to compare effectiveness and potency while, the last one was used to assess toxicity on bone marrow (as a rough guide).
(§3) Cells were treated with various concentrations of each compound for a period of 5 days.

NIH:OVCAR-3 [2] = test: Thymidine assay, ovarian cancer cell line; type: cell-based, human
Protocol: To study the feasibility of using albendazole in the treatment of peritoneal disease, the human ovarian cancer cell line NIH:OVCAR-3 was selected. This is a cell line that grows quite slowly but is tumorogenic in nude mice therefore allowing for the drug to be studied under both in-vitro and in-vivo conditions.
After finding the right conditions for the growth of cells in culture, cells were treated for 5 days with various concentrations of albendazole.

SKHEP-1 = test: Combination with methimazole (MT), SKHEP-1 growth; type: cell-based; details: SKHEP-1, albendazole 0.25 μM, 5 days
Protocol: The effect of inhibition of metabolism of albendazole on its antiproliferative activity was investigated using […] and the methimazole as an inhibitor of albendazole
5000 cells each of HepG2 and S EP1 were plated into 24 wells plates and treated for 5 days with various concentrations of albendazole alone or together with MT.

SKHEP-1 cells = test: Cell cycle analysis by flow cytometry; type: cell-based, human; details: 3 days (FIG. 3)
Protocol: SKHEP-1 cells (5×10^4) were plated onto six-well tissue culture plates. Triplicate samples were treated with the indicated concentrations of albendazole (100, 250 and 1000 nM). The medium was changed everyday. After 72 h the relevant group of cells were collected, washed twice with phosphate buffer and treated with ribonuclease, Triton X-100 and propidium iodide (Sigma) based on the method described by Taylor [12]. The percentage of cells within the G1, S, and G2-M phases of the cell cycle were determined using a FACScan flow cytometer (Becton Dickinson FACSort) and Multifit LT cell cycle analysis software (Verity Software INC.)

Hep3-B = test: [3H]thymidine incorporation assay, Hep3-B; type: cell-based, human; details: 5 days
Protocol: (§4) HepG2, Hep3-B, Hep1-6, SKHEP-1, PLC/PRF/5, and HTC cells were obtained from European Collection of Cell Cultures (ECACC; U.K), Novikoff was obtained from Cancer Research Centre (DKFZ) Heidelberg, Germany. Cells were cultured in MEM or DMEM supplemented with 10% FBS, 50 units/ml penicillin, 50 units/ml streptomycin, 25 μg/ml amphotericin B (Gibco, Grand Island, N.Y.) and maintained subconfluent at 37° C. in humidified incubators containing 5% CO2. Albendazole (Sigma, Australian subsidiary) was dissolved in absolute ethanol at concentrations that were 1000-fold higher than the final medium concentration.

NIH:OVCAR-3 [3] = test: Cell count, ovarian cancer cell line; type: cell-based, human; details: OVCAR-3, 0.1 and 1 micromoles/L, evident from day 1
Protocol: Cells were treated with either the medium alone (control) or 0.1 and 1 micromoles/L of albendazole for 0, 1, 3, 6 or 10 days and the number of viable cells counted. […] This was evident from day 1 after the treatment

[4] = system: ovarian cancer cells (NIH:OVCAR-3); test: DNA laddering (apoptosis), ovarian cancer cells; type: cell-based, human
Protocol: To find out the way albendazole works as an anticancer drug, a large variety of tests can be performed. One of the first is to see if albendazole induces apoptosis. This again is tested in several ways, one of the most common is to check for DNA laddering. […] This is the first time that the induction of apoptosis by albendazole has been reported.

[5] = system: liver (HepG2, Hep3B, PLC/PRF/5, SKHEP-1, Hep1-6, HTC, Novikoff) and colorectal cancer (C-170, HT-29 and LOVO) cell lines; test: [3H]thymidine incorporation, liver and colorectal cancer cell lines (summary); type: cell-based, human and animal; details: liver or colorectal cancer cells
Excerpt: The present inventors tested BZs and particularly albendazole against a range of liver (HepG2, Hep3B, PLC/PRF/5, SKHEP-1, Hep1-6, HTC, Novikoff) and colorectal cancer (C-170, HT-29 and LOVO) cell lines.

PC3, LNCap and Du 145 = test: Albendazole/ABS proliferation test, prostate cancer cells; type: cell-based, human; details: 3 human prostate cell lines
Protocol: as §1, §2, §3

[6] = at all times after a 400 mg oral dose; cited from earlier work
PLC/PRF/5 = test: [3H]thymidine incorporation assay, PLC/PRF/5; type: cell-based, human; details: 5 days
Protocol: as §4

HTC = test: [3H]thymidine incorporation assay, HTC; type: cell-based, rat; details: 5 days
Protocol: as §4

CCCSc1ccc2nc(NC(=O)OC)[nH]c2c1 [albendazole, methyl 5-propylthio-1H-benzimidazole-2-yl carbamate]
antiproliferative activity at 0.25 micromoles/L ([1]; 0.25 micromoles/L): dramatically increasing
inhibition at 1 µM ([1]; 120 h, 1 micromoles/L): ~100%
concentration at which antiproliferative activity becomes evident ([1]; 0.5% DMSO, in general): 0.01 µmol/L
inhibition at 0.25 µM (NIH:OVCAR-3 [2]; Homo sapiens, 120 h, OVCAR-3, 0.25 micromoles/L, 5 days): ~90%
inhibition at 0.5 µM (NIH:OVCAR-3 [2]; Homo sapiens, 120 h, OVCAR-3, 0.5 micromoles/L, 5 days, read-out: inhibition of cell growth): 100%
lowest concentration with an effect on cell proliferation (NIH:OVCAR-3 [2]; OVCAR-3, 5 days): 0.001 µmol/L
inhibition of proliferation (3H-thymidine uptake) (NIH:OVCAR-3 [2]; OVCAR-3 in vitro (FIG. 5)): dose dependent inhibition of proliferation
degree of activity relative to liver or colorectal cancer cells (NIH:OVCAR-3 [2]; OVCAR-3 versus liver or colorectal cancer cells, fold): ~10
growth inhibition (SKHEP-1): profoundly inhibited
effect on cell cycle distribution (SKHEP-1 cells; SKHEP-1, 250 nM): accumulation of cells in the G0-G1 phase
effect on cell cycle distribution (SKHEP-1 cells; SKHEP-1, 1000 nM): arrest and accumulation of cells in the G2-M phase
[3H]thymidine incorporation (Hep3-B; albendazole 10 nM): 105.7 ± 8.6 % control
[3H]thymidine incorporation (Hep3-B; albendazole 100 nM): 68.5 ± 5.7 % control
[3H]thymidine incorporation (Hep3-B; albendazole 500 nM): 22.6 ± 1.8 % control
[3H]thymidine incorporation (Hep3-B; albendazole 1000 nM): 9.3 ± 0.7 % control
number of viable cells (NIH:OVCAR-3 [3]): profound reduction in cell number
DNA laddering (apoptosis) [4]: induction of DNA laddering
concentration at which inhibitory activity starts [5]: around 0.1 micromoles/L
sensitivity of prostate cell lines in culture (PC3, LNCap and Du 145): quite sensitive
concentration of the unchanged drug [6]: below the detection limits
[3H]thymidine incorporation (PLC/PRF/5; PLC/PRF/5, albendazole 10 nM): 92.7 ± 4.7 % control
[3H]thymidine incorporation (PLC/PRF/5; PLC/PRF/5, albendazole 100 nM): 69.4 ± 5.2 % control
[3H]thymidine incorporation (PLC/PRF/5; PLC/PRF/5, albendazole 500 nM): 26.9 ± 2.7 % control
[3H]thymidine incorporation (PLC/PRF/5; PLC/PRF/5, albendazole 1000 nM): 18.4 ± 2.1 % control
[3H]thymidine incorporation (HTC; albendazole 10 nM): 98.4 ± 7.5 % control
[3H]thymidine incorporation (HTC; albendazole 100 nM): 86.0 ± 6.9 % control
[3H]thymidine incorporation (HTC; albendazole 500 nM): 28.5 ± 2.2 % control
[3H]thymidine incorporation (HTC; albendazole 1000 nM): 11.4 ± 1.3 % control
